Experimental data taken from patent US5321043A, “Method of combatting transplant rejection” (The University of Melbourne, priority 1992, dated 1994).
“Also recorded” adds a separate entry of the source.

Columns and labels:
[1] = Blood CyA levels after seven days treatment in nephrotoxicity study (Abbott TDX fluorescence immunoassay); assay type: in vivo, rabbit; conditions: CyA administered parenterally
Experimental: Compound A was provided as a powder which was dissolved in absolute ethanol to yield a […] solution. 50 ug/kg/day was administered subcutaneously for seven days. Ethanol (50 ul/kg/day) was administered in vehicle-only control animals.

renal allograft = test: Rabbit renal allograft survival; assay type: in vivo
Experimental: Left orthotopic renal transplantation was performed from New Zealand White rabbit donors into Anglo lop-ear recipients. See D. Francis et al., Aust. N. Z. J. Surgery 60, 45, 1990. Contralateral nephrectomy and graft biopsy were performed on the first post-operative day. Each recipient was subsequently dependent on its transplant for renal function. Serum creatinine (sCr) was measured every 48 hours and animals were culled once sCr had risen above 1.2 mMoles/1, taken as an arbitrary end-point representing graft failure. Graft biopsies were performed weekly and post-mortem to ensure that graft loss was secondary to rejection. Standard haematoxylin and eosin and Masson's trichrome stains were performed.
Compound A was provided as a powder which was dissolved in absolute ethanol to yield a 1 mg/ml solution. 50 μg/kg/day was administered subcutaneously for seven days commencing perioperatively. Ethanol (50 μl/kg/day) was administered in vehicle-only control animals.

[2] = test system: New Zealand White rabbits; test: Acute cyclosporine (CyA) nephrotoxicity in rabbits (serum creatinine, urea, histology); assay type: in vivo, rabbit; conditions: Compound A 50 ug/kg/day s.c. with CyA 100 mg/kg/day i.v.
Experimental: 50 ug/kg/day was administered subcutaneously for seven days. Ethanol (50 ul/kg/day) was administered in vehicle-only control animals.
Serum creatinine (Cr) and urea were measured prior to commencement of treatment (day 0) and 24 hours following treatment (day 7). Day 7 renal biopsies were stained with haematoxylin and eosin and Masson's trichrome.

[3] = test system: MLC response of responder lymphocytes to irradiated EBV-transformed lymphoblastoid cells; test: Mixed lymphocyte culture (MLC) suppression by CyA and PG analogues, alone and combined (tritiated thymidine uptake); assay type: cell-based, human; conditions: for decrease in PG analogue concentration necessary for 50% MLC suppression when combined with CyA vs alone / interaction with CyA on MLC suppression: combination with CyA; for Suppression of MLC responses, mean % decrease of cpm vs drug-free cultures: mean of five donors
Experimental: Heparinised blood was obtained from five healthy donors without history of previous blood transfusion, pregnancy, or organ transplantation.
Prostaglandin (PG) analogues PGE1, PGE2, PGF2a, and PGI2 were supplied by the Upjohn Company (Kalamazoo, Mich.) in the form of 15-(s)-15-methyl PGE1, 16,16-dimethyl PGE2, 16,16-dimethyl PGF2α, and 9-deoxy-2,9a-methano-3-oxa-4,5,6-trinor-3,7-(1', 3'-interphenylene)-13,14'-dihydroprostaglandin FI (Compound A). Each was provided in methyl acetate at 10 mg/mL that was subsequently diluted, first with ethyl alcohol to a concentration of 1 mg/mL and thereafter with physiological saline to the concentration range required for the study, 10.0-0.001 μg/mL.
Responder lymphocytes were isolated from the healthy donor heparinised blood by density gradient separation and suspended in glutamine, antibiotic-supplemented RPMI medium containing 10% autologous responder lymphocyte donor serum at a concentration of 1 ×10^6 cells/mL. The stimulator population consisted of Epstein-Barr virus (EBV)-transformed lymphoblastoid cells that were irradiated (130 Gy) before suspension also at 1×10^6 cells/mL in glutamine, antibiotic-supplemented RPMI medium that contained 10% autologous responder lymphocyte donor serum.
Equal volumes (0.1 mL) of responder and stimulator cells were incubated in triplicate wells of microtitre trays with each of the following:
Following incubation at 37° C. (5% CO2) for 4 days, […] of tritiated thymidine was added to all cultures before further incubation for 6-8 hours, after which cells were automatically harvested (Skatron, Liebyen, Norway) on Titertek filter paper (Flow Laboratories, Irvine, Scotland) that was placed in vials containing liquid scintillation fluid for counting in a Beckman beta counter (Beckman, Brea, Calif.).

[4] = PG analogue 0.01 μg/mL + CyA 0.001 μg/mL
[5] = PG analogue 0.01 μg/mL + CyA 0.01 μg/mL
[6] = PG analogue 0.01 μg/mL + CyA 0.1 μg/mL
[7] = PG analogue 0.01 μg/mL + CyA 1.0 μg/mL
[8] = PG analogue 0.01 μg/mL + CyA 10.0 μg/mL
[9] = PG analogue 0.1 μg/mL + CyA 0.001 μg/mL
[10] = PG analogue 0.1 μg/mL + CyA 0.01 μg/mL
[11] = PG analogue 0.1 μg/mL + CyA 0.1 μg/mL
[12] = PG analogue 0.1 μg/mL + CyA 1.0 μg/mL
[13] = PG analogue 0.1 μg/mL + CyA 10.0 μg/mL
[14] = PG analogue 1.0 μg/mL + CyA 0.001 μg/mL
[15] = PG analogue 1.0 μg/mL + CyA 0.01 μg/mL
[16] = PG analogue 1.0 μg/mL + CyA 0.1 μg/mL
[17] = PG analogue 1.0 μg/mL + CyA 1.0 μg/mL
[18] = PG analogue 1.0 μg/mL + CyA 10.0 μg/mL
[19] = PG analogue 10.0 μg/mL + CyA 0.001 μg/mL
[20] = PG analogue 10.0 μg/mL + CyA 0.01 μg/mL
[21] = PG analogue 10.0 μg/mL + CyA 0.1 μg/mL
[22] = PG analogue 10.0 μg/mL + CyA 1.0 μg/mL
[23] = PG analogue 10.0 μg/mL + CyA 10.0 μg/mL

Structure (SMILES)	Suppression of MLC responses by CyA in combination with PG analogue [3, 4] [%]	Suppression of MLC responses by CyA in combination with PG analogue [3, 5] [%]	Suppression of MLC responses by CyA in combination with PG analogue [3, 6] [%]	Suppression of MLC responses by CyA in combination with PG analogue [3, 7] [%]	Suppression of MLC responses by CyA in combination with PG analogue [3, 8] [%]	Suppression of MLC responses by CyA in combination with PG analogue [3, 9] [%]	Suppression of MLC responses by CyA in combination with PG analogue [3, 10] [%]	Suppression of MLC responses by CyA in combination with PG analogue [3, 11] [%]	Suppression of MLC responses by CyA in combination with PG analogue [3, 12] [%]	Suppression of MLC responses by CyA in combination with PG analogue [3, 13] [%]	Suppression of MLC responses by CyA in combination with PG analogue [3, 14] [%]	Suppression of MLC responses by CyA in combination with PG analogue [3, 15] [%]	Suppression of MLC responses by CyA in combination with PG analogue [3, 16] [%]	Suppression of MLC responses by CyA in combination with PG analogue [3, 17] [%]	Suppression of MLC responses by CyA in combination with PG analogue [3, 18] [%]	Suppression of MLC responses by CyA in combination with PG analogue [3, 19] [%]	Suppression of MLC responses by CyA in combination with PG analogue [3, 20] [%]	Suppression of MLC responses by CyA in combination with PG analogue [3, 21] [%]	Suppression of MLC responses by CyA in combination with PG analogue [3, 22] [%]	Suppression of MLC responses by CyA in combination with PG analogue [3, 23] [%]	also measured
CCCCC[C@H](O)CC[C@@H]1[C@H]2Cc3cccc(OCC(=O)O)c3C[C@H]2C[C@H]1O [Compound A, 9-deoxy-2',9α-methano-3-oxa-4,5,6-trinor-3,7-(1',3'-interphenylene)-13, 14--dihydro-prostaglandinF1]	27	58	75	86	87	68	76	86	85	85	81	85	85	85	88	86	88	85	86	86	effect on CyA bioavailability [1]: without effecting CyA bioavailability; effect on renal allograft survival (renal allograft; Compound A 50 μg/kg/day s.c., CyA 20 mg/kg where combined): prolonged allograft survival over that of untreated animals; Median Graft Survival (renal allograft; Compound A 50 μg/kg/day subcutaneously for seven days, no CyA): 13.5 days; effect on renal function, as measured by serum Cr and urea [2]: significant protective effect on renal function; effect on renal function, as measured by serum Cr and urea ([2]; listed as PGI2 analogue): significant protective affect on renal function; decrease in PG analogue concentration necessary for 50% MLC suppression when combined with CyA vs alone [3]: 10 fold; interaction with CyA on MLC suppression [3]: a synergy that parallels that observed between CyA and the PGE analogues; Suppression of MLC responses, mean % decrease of cpm vs drug-free cultures ([3]; single agent at 0.001 μg/mL): 10%; Suppression of MLC responses, mean % decrease of cpm vs drug-free cultures ([3]; single agent at 0.01 μg/mL): 22%; Suppression of MLC responses, mean % decrease of cpm vs drug-free cultures ([3]; single agent at 0.1 μg/mL): 51%; Suppression of MLC responses, mean % decrease of cpm vs drug-free cultures ([3]; single agent at 1.0 μg/mL): 61%; Suppression of MLC responses, mean % decrease of cpm vs drug-free cultures ([3]; single agent at 10.0 μg/mL): 77%; times more effective in suppressing the MLC response than PGE1 and PGE2 ([3]; single agents): 10 times
CCCCC(C)(C)[C@H](O)/C=C/[C@H]1[C@H](O)CC(=O)[C@@H]1C/C=C\CCCC(=O)O [PGE2, 16,16-dimethyl PGE2]	23	49	55	63	68	26	52	58	66	70	58	56	67	80	85	60	71	72	88	86	decrease in PG analogue concentration necessary for 50% MLC suppression when combined with CyA vs alone [3]: 100 fold; Suppression of MLC responses, mean % decrease of cpm vs drug-free cultures ([3]; single agent at 0.001 μg/mL): 6%; Suppression of MLC responses, mean % decrease of cpm vs drug-free cultures ([3]; single agent at 0.01 μg/mL): 18%; Suppression of MLC responses, mean % decrease of cpm vs drug-free cultures ([3]; single agent at 0.1 μg/mL): 32%; Suppression of MLC responses, mean % decrease of cpm vs drug-free cultures ([3]; single agent at 1.0 μg/mL): 51%; Suppression of MLC responses, mean % decrease of cpm vs drug-free cultures ([3]; single agent at 10.0 μg/mL): 58%; times more effective in suppressing the MLC response than the PGF2a analogue ([3]; single agents): 10 times
CCCCC(C)(C)[C@H](O)/C=C/[C@@H]1[C@@H](C/C=C\CCCC(=O)O)[C@@H](O)C[C@H]1O [PGF2α, 16,16-dimethyl PGF2α]	14	25	55	70	86	14	24	55	72	86	31	30	58	76	85	58	65	69	79	86	interaction with CyA on MLC suppression ([3]; listed as PGF2a): no influence further than that exerted when each was added alone; also recorded: no indication of synergistic interaction with CyA; minimum concentration which alone induced 50% MLC inhibition ([3]; single agent): 10.0 µg/mL; Suppression of MLC responses, mean % decrease of cpm vs drug-free cultures ([3]; single agent at 0.001 μg/mL): 0%; Suppression of MLC responses, mean % decrease of cpm vs drug-free cultures ([3]; single agent at 0.01 μg/mL): 4%; Suppression of MLC responses, mean % decrease of cpm vs drug-free cultures ([3]; single agent at 0.1 μg/mL): 16%; Suppression of MLC responses, mean % decrease of cpm vs drug-free cultures ([3]; single agent at 1.0 μg/mL): 29%; Suppression of MLC responses, mean % decrease of cpm vs drug-free cultures ([3]; single agent at 10.0 μg/mL): 50%
